Measured values from ChEMBL document CHEMBL1136141, “2-Phenyl-5,6-dihydro-2H-thieno[3,2-c]pyrazol-3-ol derivatives as new inhibitors of bacterial cell wall biosynthesis” (Bioorg Med Chem Lett, 2003).
pIC50: −log10 of the molar value. Values after ≈ are worked out from the molar mass of the structure shown.

Experiments:
Enterococcus faecalis [1] = assay: Minimum inhibitory activity against Enterococcus faecalis GC 4555 (ATCC); assay type: functional
Staphylococcus aureus [2] = assay: Minimum inhibitory activity against Staphylococcus aureus GC 2216 (ATCC); assay type: functional
[3] = target: T1, UDP-N-acetylmuramate--L-alanine ligase (Staphylococcus aureus, UniProt O31211); assay: In vitro inhibitory activity against Staphylococcus aureus UDP-N-acetylmuramoyl-L-alanine synthetase
T1 sequence (O31211 whole entry): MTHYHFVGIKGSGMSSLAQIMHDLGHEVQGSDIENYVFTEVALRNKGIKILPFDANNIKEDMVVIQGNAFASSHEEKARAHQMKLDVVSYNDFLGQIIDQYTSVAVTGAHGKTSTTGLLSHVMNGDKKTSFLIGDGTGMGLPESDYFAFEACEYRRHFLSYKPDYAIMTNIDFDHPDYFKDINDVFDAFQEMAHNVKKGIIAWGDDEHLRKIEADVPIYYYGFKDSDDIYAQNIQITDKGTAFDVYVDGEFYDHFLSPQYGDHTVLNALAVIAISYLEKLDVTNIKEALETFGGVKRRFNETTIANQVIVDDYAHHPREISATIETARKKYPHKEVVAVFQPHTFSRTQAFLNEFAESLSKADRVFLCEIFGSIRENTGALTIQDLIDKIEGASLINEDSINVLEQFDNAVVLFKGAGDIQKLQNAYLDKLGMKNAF

Staphylococcus aureus [4] = assay: Minimum inhibitory activity against Staphylococcus aureus GC 1131 (MRSA); assay type: functional
[5] = Partition coefficient (logP); assay type: physicochemical; details: octanol/water
[6] = target: T2, UDP-N-acetylmuramoylalanine--D-glutamate ligase (Staphylococcus aureus, UniProt P0A091); assay: In vitro inhibitory activity against Staphylococcus aureus UDP-N-acetylmuramoyl-L-alanyl-D-glutamate synthetase
T2 sequence (P0A091 whole entry): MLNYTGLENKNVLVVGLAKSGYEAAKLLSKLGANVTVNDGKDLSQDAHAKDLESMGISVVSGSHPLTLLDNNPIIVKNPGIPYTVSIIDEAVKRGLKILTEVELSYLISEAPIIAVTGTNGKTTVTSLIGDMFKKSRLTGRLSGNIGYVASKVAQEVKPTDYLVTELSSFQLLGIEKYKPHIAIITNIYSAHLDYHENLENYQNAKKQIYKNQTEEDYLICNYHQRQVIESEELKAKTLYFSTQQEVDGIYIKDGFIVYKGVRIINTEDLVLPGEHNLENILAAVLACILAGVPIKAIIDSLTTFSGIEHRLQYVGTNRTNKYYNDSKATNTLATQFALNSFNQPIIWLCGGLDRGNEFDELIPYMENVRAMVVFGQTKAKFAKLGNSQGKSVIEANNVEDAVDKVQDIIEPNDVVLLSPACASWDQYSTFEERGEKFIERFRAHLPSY

Escherichia coli [7] = assay: Minimum inhibitory activity against Escherichia coli GC 4559; assay type: functional
[8] = target: T3, UDP-N-acetylenolpyruvoylglucosamine reductase (Staphylococcus aureus, UniProt P61431); assay: In vitro inhibitory activity against Staphylococcus aureus UDP-N-acetylmuramate dehydrogenase
T3 sequence (P61431 whole entry): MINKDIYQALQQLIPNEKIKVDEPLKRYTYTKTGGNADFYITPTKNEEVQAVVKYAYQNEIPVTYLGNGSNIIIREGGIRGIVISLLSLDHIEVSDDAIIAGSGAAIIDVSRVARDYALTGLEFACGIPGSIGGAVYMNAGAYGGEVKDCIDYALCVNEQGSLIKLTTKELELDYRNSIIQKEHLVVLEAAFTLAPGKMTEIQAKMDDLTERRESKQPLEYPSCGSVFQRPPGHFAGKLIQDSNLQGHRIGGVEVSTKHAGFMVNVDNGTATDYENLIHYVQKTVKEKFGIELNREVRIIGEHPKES

Staphylococcus aureus [9] = assay: Minimum inhibitory activity against Staphylococcus aureus GC 4543 (MSSA); assay type: functional
[10] = Minimum inhibitory activity in presence of 4% bovine serum albumin against Streptococcus pneumoniae GC1894 (PRSP); assay type: functional
[11] = Minimum inhibitory activity against MSCNS GC 646; assay type: functional; details: Staphylococcus
Enterococcus faecalis [12] = assay: Minimum inhibitory activity against Enterococcus faecalis GC 2242 (VRE); assay type: functional
[13] = Minimum inhibitory activity against Streptococcus pneumoniae GC1894 (PRSP); assay type: functional
Escherichia coli [14] = assay: Minimum inhibitory activity against Escherichia coli GC 4560; assay type: functional
Bacteria = assay: Minimum inhibitory activity against gram negative bacteria; assay type: functional

Row | SMILES | MIC (Enterococcus faecalis [1]) [µg/mL] | MIC (Staphylococcus aureus [2]) [µg/mL] | pIC50 [3] | MIC (Staphylococcus aureus [4]) [µg/mL] | logP [5] | pIC50 [6] | MIC (Escherichia coli [7]) [µg/mL] | pIC50 [8] | MIC (Staphylococcus aureus [9]) [µg/mL] | MIC [10] [µg/mL] | MIC [11] [µg/mL] | MIC (Enterococcus faecalis [12]) [µg/mL] | MIC [13] [µg/mL] | MIC (Escherichia coli [14]) [µg/mL] | MIC (Bacteria) [µg/mL]
1 | NC(=O)c1cccc(-n2nc3c(c2O)SCC3)c1 | 64 (≈ 245 µM) | 128 (≈ 490 µM) | < 4.02 | 128 (≈ 490 µM) | 1.41 | 4.32 | > 128 | < 4.02 | 64 (≈ 245 µM) | > 128 | > 128 | 32 (≈ 122 µM) | 8 (≈ 30.6 µM) | 128 (≈ 490 µM) | –
2 | N#Cc1ccc(-n2nc3c(c2O)SCC3)cc1 | 8 (≈ 32.9 µM) | 8 (≈ 32.9 µM) | < 3.99 | 32 (≈ 132 µM) | 2.53 | 4.31 | > 128 | < 3.99 | 16 (≈ 65.8 µM) | > 128 | 4 (≈ 16.4 µM) | 8 (≈ 32.9 µM) | 4 (≈ 16.4 µM) | 64 (≈ 263 µM) | –
3 | [O-][S+]1CCc2nn(-c3ccc(Cl)c(Cl)c3)c(O)c21 (stereo unspecified) | – | – | – | – | 2.01 | – | – | 4.18 | – | – | – | – | – | – | > 128
